This data set can be described thus: hydrolysis of the compound into its active (dissolved in water, followed by NMR).

Structures are written as SMILES.

The half-life is how long it takes for the measured level to halve. Lower therefore signals fast loss.

With `CN(C)CCc1c[nH]c2cccc(OP(=O)(O)O)c12` [Psilocybin], the half-life was below 365 days.
